Source: BigSolDB 2.1

O=[N+]([O-])c1cn[nH]c1
solubility (mole fraction)
Conditions	in acetonitrile	in ethanol	in methanol	in water
278.15 K	0.0478	0.037	0.0491	0.00209
280.65 K	0.0491	0.0389	0.0502	0.00218
283.15 K	0.0508	0.0405	0.0517	0.00231
285.65 K	0.0524	0.0429	0.0532	0.00248
288.15 K	0.0541	0.045	0.0558	0.00268
290.65 K	0.0558	0.047	0.0583	0.00286
293.15 K	0.0576	0.0494	0.061	0.00315
295.65 K	0.0595	0.0521	0.0638	0.00339
298.15 K	0.0623	0.0549	0.067	0.0037
300.65 K	0.0648	0.0582	0.0698	0.00401
303.15 K	0.0674	0.0614	0.073	0.0044
305.65 K	0.0703	0.0647	0.0758	0.00477
308.15 K	0.0731	0.0677	0.0789	0.00526
310.65 K	0.0758	0.0714	0.0817	0.00586
313.15 K	0.079	0.0747	0.0848	0.00653
315.65 K	0.0828	0.0784	0.0885	0.00724
318.15 K	0.0872	0.0828	0.092	0.00802
